From patent US10316028B2, “Orexin receptor antagonists” (Heptares Therapeutics Limited, priority 2012, dated 2019)

Target: T1, human Orexin-2 receptor (Homo sapiens, UniProt O43614)
T1 construct: expressed in transfected cells; host or cells: HEK293 cells (transient transfection, Genejuice); membranes
T1 sequence (O43614 1-444): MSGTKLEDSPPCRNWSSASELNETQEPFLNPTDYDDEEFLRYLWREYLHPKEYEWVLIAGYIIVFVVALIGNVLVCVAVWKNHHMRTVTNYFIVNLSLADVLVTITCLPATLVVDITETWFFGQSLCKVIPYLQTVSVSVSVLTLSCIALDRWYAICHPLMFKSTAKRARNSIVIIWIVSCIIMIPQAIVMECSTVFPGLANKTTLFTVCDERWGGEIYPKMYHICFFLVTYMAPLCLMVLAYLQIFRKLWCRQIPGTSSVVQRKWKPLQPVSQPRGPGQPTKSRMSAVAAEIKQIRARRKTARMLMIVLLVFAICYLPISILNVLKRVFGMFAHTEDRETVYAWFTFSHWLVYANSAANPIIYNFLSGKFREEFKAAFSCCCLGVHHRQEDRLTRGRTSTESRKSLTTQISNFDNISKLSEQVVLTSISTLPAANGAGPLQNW
Assay: 3H-EMPA radioligand binding assay
Details: 3H-EMPA displacement, membranes of HEK293 cells transfected with human Orexin-2 receptor; KI by Cheng-Prussoff; read-out: OX2 pKi ave (converted)
Procedure: cDNA encoding the human Orexin-2 receptor was transfected into HEK293 cells using the transfection reagent Genejuice (Novagen). Forty-eight hours after transfection, cells were harvested and washed twice with ice cold phosphate-buffered saline. The pellet was resuspended in ice-cold buffer containing 20 mM Tris-HCl, pH 7.4, 1 mM EDTA and homogenised with an Ultraturax for 30 s at maximum speed. After centrifugation at 48,000 g for 30 min at 4° C., the pellet was resuspended and spun again. The final pellet was resuspended and frozen at −80° C. before use. Protein concentration was determined using the BCA protein assay method.
^3H-EMPA Radioligand Binding Assay
At the end of the incubation, membranes were filtered onto a unifilter, a 96-well white microplate with bonded GF/B filter pre-incubated with 0.5% polyethylenimine, with a Tomtec cell harvester and washed 4 times with distilled water. […] Radioactivity on the filter was counted (1 min) on a microbeta counter after addition of 50 µL of scintillation fluid. […] IC50 values were derived from the inhibition curve and the equilibrium dissociation constant (KI) values were calculated using the Cheng-Prussoff equation.

Structure (SMILES) | Ki
CCc1ccc(N2C(=O)N(Cc3c(F)cccc3Cl)c3ccccc3S2(=O)=O)cc1 [Example 37, 4-(2-chloro-6-fluorobenzyl)-2-(4-ethylphenyl)-2H-1,2,4-benzothiadiazin-3(4H)-one 1,1-dioxide] | 5.01 nM
O=C1N(Cc2c(F)cccc2Cl)c2ccccc2S(=O)(=O)N1Cc1ccc(F)cc1 [Example 39, 4-(2-chloro-6-fluorobenzyl)-2-(4-fluorobenzyl)-2H-1,2,4-benzothiadiazin-3(4H)-one 1,1-dioxide] | 20 nM
O=C1N(Cc2c(F)cccc2Cl)c2ccccc2S(=O)(=O)N1Cc1ccccc1 [Example 40, 2-benzyl-4-(2-chloro-6-fluorobenzyl)-2H-1,2,4-benzothiadiazin-3(4H)-one 1,1-dioxide] | 26.3 nM
CSc1cccc(N2C(=O)N(Cc3ccc(F)cc3Cl)c3ccccc3S2(=O)=O)c1 [Example 50, 4-(2-chloro-4-fluorobenzyl)-2-[3-(methylsulfanyl)phenyl]-2H-1,2,4-benzothiadiazin-3(4H)-one 1,1-dioxide] | 35.5 nM
CSc1cccc(N2C(=O)N(Cc3cc(C)ccc3C)c3ccccc3S2(=O)=O)c1 [Example 51, 4-(2,5-dimethylbenzyl)-2-[3-(methylsulfanyl)phenyl]-2H-1,2,4-benzothiadiazin-3(4H)-one 1,1-dioxide] | 17.8 nM
COC(=O)c1ccc(OC)c(CN2C(=O)N(c3cccc(SC)c3)S(=O)(=O)c3ccccc32)c1 [Example 52, methyl 3-({2-[3-(methylsulfanyl)phenyl]-1,1-dioxido-3-oxo-2,3-dihydro-4H-1,2,4-benzothiadiazin-4-yl}methyl)-4-methoxybenzoate] | 2.63 nM
Cc1ccc(N2C(=O)N(Cc3ccccc3F)c3ccccc3S2(=O)=O)cc1Cl [Example 53, 4-(2-fluorobenzyl)-2-(3-chloro-4-methylphenyl)-2H-1,2,4-benzothiadiazin-3(4H)-one 1,1-dioxide] | 31.6 nM
Cc1ccc(N2C(=O)N(Cc3ccccc3C)c3ccccc3S2(=O)=O)cc1Cl [Example 54, 4-(2-methylbenzyl)-2-(3-chloro-4-methylphenyl)-2H-1,2,4-benzothiadiazin-3(4H)-one 1,1-dioxide] | 43.7 nM
Cc1cc(C)cc(N2C(=O)N(Cc3ccccc3Cl)c3ccccc3S2(=O)=O)c1 [Example 55, 4-(2-chlorobenzyl)-2-(3,5-dimethylphenyl)-2H-1,2,4-benzothiadiazin-3(4H)-one 1,1-dioxide] | 30.9 nM
Cc1cc(C)cc(N2C(=O)N(Cc3ccccc3F)c3ccccc3S2(=O)=O)c1 [Example 56, 4-(2-fluorobenzyl)-2-(3,5-dimethylphenyl)-2H-1,2,4-benzothiadiazin-3(4H)-one 1,1-dioxide] | 20.9 nM
Cc1ccc(N2C(=O)N(Cc3ccccc3F)c3ccccc3S2(=O)=O)cc1C [Example 57, 4-(2-fluorobenzyl)-2-(3,4-dimethylphenyl)-2H-1,2,4-benzothiadiazin-3(4H)-one 1,1-dioxide] | 23.4 nM
O=C1N(Cc2ccccc2Cl)c2ccccc2S(=O)(=O)N1Cc1ccccc1 [Example 58, 2-benzyl-4-(2-chlorobenzyl)-2H-1,2,4-benzothiadiazin-3(4H)-one 1,1-dioxide] | 933 nM
Cc1ccc(N2C(=O)N(Cc3ccccc3Cl)c3ccccc3S2(=O)=O)cc1C [Example 59, 4-(2-chlorobenzyl)-2-(3,4-dimethylphenyl)-2H-1,2,4-benzothiadiazin-3(4H)-one 1,1-dioxide] | 43.7 nM
COC(=O)c1ccc(OC)c(CN2C(=O)N(c3ccc(OC)c(OC)c3)S(=O)(=O)c3ccccc32)c1 [Example 60, methyl 3-{[2-(3,4-dimethoxyphenyl)-1,1-dioxido-3-oxo-2,3-dihydro-4H-1,2,4-benzothiadiazin-4-yl]methyl}-4-methoxybenzoate] | 40.7 nM
CSc1cccc(N2C(=O)N(CC3CCC3)c3ccccc3S2(=O)=O)c1 [Example 61, 4-(Cyclobutylmethyl)-2-[3-(methylsulfanyl)phenyl]-2H-1,2,4-benzothiadiazin-3(4H)-one 1,1-dioxide] | 269 nM
CSc1cccc(N2C(=O)N(CC3CCCCC3)c3ccccc3S2(=O)=O)c1 [Example 62, 4-(Cyclohexylmethyl)-2-[3-(methylsulfanyl)phenyl]-2H-1,2,4-benzothiadiazin-3(4H)-one 1,1-dioxide] | 871 nM
CSc1cccc(N2C(=O)N(C(C)c3ccccc3F)c3ccc(F)cc3S2(=O)=O)c1 (centres unmarked) [Example 63, 7-Fluoro-4-[1-(2-fluorophenyl)ethyl]-2-[3-(methylsulfanyl)phenyl]-2H-1,2,4-benzothiadiazin-3(4H)-one 1,1-dioxide] | 832 nM
O=C1N(Cc2c(F)cccc2Cl)c2ccccc2S(=O)(=O)N1CC1CCCCC1 [Example 64, 4-(2-Chloro-6-fluorobenzyl)-2-(cyclohexylmethyl)-2H-1,2,4-benzothiadiazin-3(4H)-one 1,1-dioxide] | 661 nM
N#Cc1ccc(CN2C(=O)N(Cc3c(F)cccc3F)c3ccccc3S2(=O)=O)cc1F [Example 65, 4-{[4-(2,6-Difluorobenzyl)-1,1-dioxido-3-oxo-3,4-dihydro-2H-1,2,4-benzothiadiazin-2-yl]methyl}-2-fluorobenzonitrile] | 200 nM

Further lines, results first:

Ki | Structure (SMILES)
1.12 nM | Cc1ccc(N2C(=O)N(Cc3c(F)cccc3Cl)c3ccccc3S2(=O)=O)cc1C [Example 34, 4-(2-chloro-6-nuorobenzyl)-2-(3,4-dimethylphenyl)-2H-1,2,4-benzothiadiazin-3(4H)-one 1,1-dioxide]
31.6 nM | COc1ccccc1N1C(=O)N(Cc2c(F)cccc2Cl)c2ccccc2S1(=O)=O [Example 35, 4-(2-chloro-6-fluorobenzyl)-2-(2-methoxyphenyl)-2H-1,2,4-benzothiadiazin-3(4H)-one 1,1-dioxide]
15.8 nM | COc1cccc(N2C(=O)N(Cc3c(F)cccc3Cl)c3ccccc3S2(=O)=O)c1 [Example 36, 4-(2-chloro-6-fluorobenzyl)-2-(3-methoxyphenyl)-2H-1,2,4-benzothiadiazin-3(4H)-one 1,1-dioxide]
15.8 nM | Cc1cccc(N2C(=O)N(Cc3c(F)cccc3Cl)c3ccccc3S2(=O)=O)c1C [Example 38, 4-(2-chloro-6-fluorobenzyl)-2-(2,3-dimethylphenyl)-2H-1,2,4-benzothiadiazin-3(4H)-one 1,1-dioxide]
25.1 nM | Cc1ccc(Cl)cc1N1C(=O)N(Cc2c(F)cccc2Cl)c2ccccc2S1(=O)=O [Example 41, 4-(2-chloro-6-fluorobenzyl)-2-(5-chloro-2-methylphenyl)-2H-1,2,4-benzothiadiazin-3(4H)-one 1,1-dioxide]
14.1 nM | O=C1N(Cc2c(F)cccc2Cl)c2ccccc2S(=O)(=O)N1c1cccc(Cl)c1 [Example 42, 4-(2-chloro-6-fluorobenzyl)-2-(3-chlorophenyl)-2H-1,2,4-benzothiadiazin-3(4H)-one 1,1-dioxide]
4.68 nM | Cc1ccc(N2C(=O)N(Cc3c(F)cccc3Cl)c3ccccc3S2(=O)=O)cc1F [Example 43, 4-(2-chloro-6-fluorobenzyl)-2-(3-fluoro-4-methylphenyl)-2H-1,2,4-benzothiadiazin-3(4H)-one 1,1-dioxide]
31.6 nM | O=C1N(Cc2c(F)cccc2Cl)c2ccccc2S(=O)(=O)N1c1ccc(F)cc1 [Example 44, 4-(2-chloro-6-fluorobenzyl)-2-(4-fluorophenyl)-2H-1,2,4-benzothiadiazin-3(4H)-one 1,1-dioxide]
16.6 nM | Cc1ccc(N2C(=O)N(Cc3c(F)cccc3Cl)c3ccccc3S2(=O)=O)c(C)c1 [Example 45, 4-(2-chloro-6-fluorobenzyl)-2-(2,4-dimethylphenyl)-2H-1,2,4-benzothiadiazin-3(4H)-one 1,1-dioxide]
63.1 nM | O=C1N(Cc2c(F)cccc2Cl)c2ccccc2S(=O)(=O)N1c1cc(F)ccc1F [Example 46, 4-(2-chloro-6-fluorobenzyl)-2-(2,5-difluorophenyl)-2H-1,2,4-benzothiadiazin-3(4H)-one 1,1-dioxide]
2.51 nM | CCc1cccc(N2C(=O)N(Cc3c(F)cccc3Cl)c3ccccc3S2(=O)=O)c1 [Example 47, 4-(2-chloro-6-fluorobenzyl)-2-(3-ethylphenyl)-2H-1,2,4-benzothiadiazin-3(4H)-one 1,1-dioxide]
3.72 nM | CC(C)c1ccc(N2C(=O)N(Cc3c(F)cccc3Cl)c3ccccc3S2(=O)=O)cc1 [Example 48, 4-(2-chloro-6-fluorobenzyl)-2-[4-(propan-2-yl)phenyl]-2H-1,2,4-benzothiadiazin-3(4H)-one 1,1-dioxide]
1.05 nM | CSc1cccc(N2C(=O)N(Cc3c(F)cccc3Cl)c3ccccc3S2(=O)=O)c1 [Example 49, 4-(2-chloro-6-fluorobenzyl)-2-[3-(methylsulfanyl)phenyl]-2H-1,2,4-benzothiadiazin-3(4H)-one 1,1-dioxide]
